From patent USRE42394E1, “Fungicidal compositions for the enhancement of turf quality” (Bayer CropScience Inc., priority 1995, dated 2011)

System: bentgrass cultivar “Penncross”
Assay: Turf quality and color ratings on fungicide-treated bentgrass field plots (decline from crown and root rot)
Type: in vivo
Settings: summary statements of the text on the field tests
Procedure: Fungicides were evaluated on a one-year-old stand of the bentgrass cultivar “Penncross” planted in Raleigh, N.C., U.S.A. The bentgrass was planted in native soil and maintained under conditions similar to a golf green with a mowing height of 0.635 cm (.25 inches).
The fungicides were applied separately and in combination at labelled rates to 1.5 m×1.5 m (5 ft×5 ft) plots of bentgrass prior to evidence of any decline in turf quality due to crown and root rot. A CO2 backpack sprayer was used to apply the fungicide treatments at (30 lbs psi) using TEEJET™ 8004 nozzles to apply 9.5 liters (2.5 gallons) of fungicide dilutions per 93 square meters (1000 sq ft). The fungicides were initially applied and subsequently reapplied according to a 14 day schedule. In some experiments, an electrical pump sprayer was used to apply the treatments at 30 psi using a Teejet 8004 nozzle.
Turf quality, color and percent disease ratings were recorded weekly, based on a scale from 1-9, with 9 being ideal turf quality and color and 1 being all turf dead. The percent disease ratings were calculated based on the percent of area in each plot showing symptoms of brown patch. Turf quality and color ratings were used as an indicator of the health of the bentgrass and the amount of decline associated with crown and root rot.

Q: Which “turf quality and color, comparison in words” value does the source give for `[Cu+2].c1ccc2c(c1)-c1nc-2nc2[n-]c(nc3nc(nc4[n-]c(n1)c1ccccc41)-c1ccccc1-3)c1ccccc21` [Pigment Blue 15] here?
A: enhances the activity of the ALIETTE™ and mancozeb in a synergistic interaction
